Reference: PMC8000592, “Discovery and Optimization of Selective Inhibitors of Meprin α (Part I)” (Pharmaceuticals, 2021)
Read-outs that look alike come from different tables or passages of the source.

Legend:
[1] = target: T1, ADAM17 (Homo sapiens, UniProt P78536); assay: ADAM17 assay (Mca-KPLGL-Dpa-AR-NH2 substrate); assay type: biochemical; conditions: triplicate, 10-point, 3:1 serial dilution, highest concentration 17.4 µM
T1 construct: purchased R&D Systems 930-ADB
Description: We were able to procure 64 out of 87 selected compounds from commercial sources, which we tested in triplicate, 10-point, 3:1 serial dilution concentration response format starting at the highest concentration of 17.4 µM against both meprin α and meprin β. In addition to meprins, we also tested 64 hits against related metzincins (MMP-2, MMP-3, MMP-8, MMP-9, MMP-10, MMP-14, ADAM10, and ADAM17) to ascertain general nonpromiscuity against zinc-dependent proteases.
Both assays followed the same general protocol. A 2.5 µL portion of 2 × enzyme solution (20 nM) in assay buffer (10 mM HEPES, 0.001% Brij-35, pH 7.5) was added to solid bottom black 1536 plates (Greiner, cat# 789075). Next, test compounds and pharmacological controls were added to corresponding wells using a 1536 pin tool device (V&P Scientific, San Diego, CA, USA). After 30 min incubation at RT, the reactions were started by addition of 2.5 µL of 2x solutions of substrate (R&D Systems cat#: ES010, Mca-KPLGL-Dpa-AR-NH2, 20 µM). Reactions were incubated at RT for 2 h, after which the fluorescence was measured using a PerkinElmer Viewlux multimode microplate imager (λexcitation = 324 nm, λemission = 390 nm). Final concentration of test compounds in assays was 7.0 µM.

[2] = target: T2, meprin β (Homo sapiens, UniProt Q16820); assay: Meprin β assay, fluorogenic substrate (Mca)-EDEDED-(K-ε-Dnp), 384 and 1536 well plate formats; assay type: biochemical
T2 sequence (Q16820 62-594 limits assumed): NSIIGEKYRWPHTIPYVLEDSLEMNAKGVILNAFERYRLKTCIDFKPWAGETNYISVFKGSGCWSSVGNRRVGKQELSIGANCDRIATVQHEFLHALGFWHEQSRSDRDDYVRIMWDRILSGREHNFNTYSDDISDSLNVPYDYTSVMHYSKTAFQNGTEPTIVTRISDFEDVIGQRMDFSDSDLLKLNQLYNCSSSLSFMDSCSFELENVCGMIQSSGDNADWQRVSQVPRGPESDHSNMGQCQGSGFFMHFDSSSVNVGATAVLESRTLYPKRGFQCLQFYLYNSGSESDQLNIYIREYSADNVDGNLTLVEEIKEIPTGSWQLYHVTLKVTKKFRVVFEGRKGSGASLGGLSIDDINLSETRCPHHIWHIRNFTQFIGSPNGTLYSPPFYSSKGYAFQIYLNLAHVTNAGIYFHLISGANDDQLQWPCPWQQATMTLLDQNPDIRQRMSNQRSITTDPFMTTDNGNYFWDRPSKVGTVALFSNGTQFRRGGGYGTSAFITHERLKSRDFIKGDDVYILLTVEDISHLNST
Description: The meprin α and meprin β assays, which utilize the substrates (Mca)-YVADAPK-(K-ε-Dnp) and (Mca)-EDEDED-(K-ε-Dnp), respectively, have been described previously. To enable an ultra-high-throughput screening (uHTS) campaign, we proceeded to miniaturize both assays to 1536 well plate format (wpf). First, we recapitulated the assays in 1536 well plate using reagents at the same concentrations as in 384 well plate format assays by scaling the volume down by the factor of 2.5.
Both assays followed the same general protocol. A 5 µL measure of 2 × enzyme solution (2.6 and 0.1 nM for meprin α and meprin β, respectively) in assay buffer (50 mM Hepes, 0.01% Brij-35, pH 7.5) was added to solid bottom black 384 low volume plates (Nunc, cat# 264705). Next, 75 nL of test compounds or pharmacological control (actinonin or NFF449) were added to corresponding wells using a 384-pin tool device (V&P Scientific, San Diego, CA, USA). After 30 min incubation at RT, the reactions were started by addition of 5 µL of 2 × solutions of substrates (20 µM, mepin α substrate Mca-YVADAPK-K(Dnp) or meprin β substrate Mca-EDEDED-K(Dnp)). Reactions were incubated at RT for 1 h, after which the fluorescence was measured using the Synergy H4 multimode microplate reader (Biotek Instruments) (λexcitation = 324 nm, λemission = 390 nm).
Both assays followed the same general protocol. A 2 µL portion of 2 × enzyme solution (1.3 and 0.0125 nM for meprin α and meprin β, respectively) in assay buffer (50 mM Hepes, 0.01% Brij-35, pH 7.5) was added to solid bottom black 1536 low volume plates (Corning cat# 7261). Next, 30 nL of test compounds or pharmacological control (actinonin or NFF449) was added to corresponding wells using a 1536 pin tool device (V&P Scientific, San Diego). After 30 min incubation at RT, the reactions were started by addition of 2 µL of 2x solutions of substrates (20 µM, meprin α substrate Mca-YVADAPK-K(Dnp) or meprin β substrate Mca-EDEDED-K(Dnp)). Reactions were incubated at RT for 1 h, after which the fluorescence was measured using the Viewlux multimode microplate reader (Perkin Elmer) (λexcitation = 324 nm, λemission = 390 nm).
The miniaturized 1536-well plate format meprin α and meprin β assays were used to screen a collection of approximately 650,000 compounds (The Scripps Research library, La Jolla, CA, USA) on the automated Kalypsys/GNF platform at The Scripps Research Molecular Screening Center (SRMSC, Jupiter, FL, USA: http://hts.florida.scripps.edu/). Both uHTS campaigns were run separately but in a similar manner. Briefly, the first step was the primary screen of all test compounds as singlicates against the meprin α and meprin β target at a final concentration of 7.0 μM. Next, compounds selected as primary hits were cherry-picked and retested in triplicate against the primary screen target and its antitarget (meprin α for the meprin β screening effort, and vice versa) at a same final concentration of 7.0 μM. The additional counter screen assays against related metzincins (MMP-8, MMP-14, and ADAM10) were performed in triplicate at a final concentration of 7.0 μM. The final step was the titration of selected hits as 10-point, 1:3 serial dilutions in both the target and antitarget assay, starting at a final nominal concentration of 17 μM. […] Wells treated with DMSO only were used as negative controls and 0% inhibition reference. […] All data generated during this effort were uploaded to the SRMSC’s institutional screening database (Assay Explorer, Symyx). Sample to background (S/B) ratios, as well as Z and Z’ values, were calculated on a per plate basis as described 14. Curve fitting and resulting IC50 determinations were performed as previously reported.

[3] = triplicate, 10-point, 3:1 serial dilution, highest concentration 17.4 µM, read-out: Meprin β IC50

T1 sequence (P78536 215-824): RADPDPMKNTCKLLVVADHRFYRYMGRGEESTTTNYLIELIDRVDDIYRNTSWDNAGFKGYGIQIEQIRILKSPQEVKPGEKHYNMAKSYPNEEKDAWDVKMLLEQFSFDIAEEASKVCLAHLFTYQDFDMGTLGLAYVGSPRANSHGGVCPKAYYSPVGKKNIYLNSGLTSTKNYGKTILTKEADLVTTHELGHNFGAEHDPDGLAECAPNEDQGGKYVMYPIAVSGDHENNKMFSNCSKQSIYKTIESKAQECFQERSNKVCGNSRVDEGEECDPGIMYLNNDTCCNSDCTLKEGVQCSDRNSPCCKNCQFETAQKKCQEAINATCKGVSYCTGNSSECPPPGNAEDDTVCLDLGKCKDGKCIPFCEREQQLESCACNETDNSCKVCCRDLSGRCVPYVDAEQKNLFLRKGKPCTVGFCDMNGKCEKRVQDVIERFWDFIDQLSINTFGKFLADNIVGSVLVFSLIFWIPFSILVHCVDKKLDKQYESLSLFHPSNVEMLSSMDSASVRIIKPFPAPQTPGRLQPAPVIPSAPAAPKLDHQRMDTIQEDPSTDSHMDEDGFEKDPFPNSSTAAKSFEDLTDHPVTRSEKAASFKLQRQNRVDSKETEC

For `O=C(CSc1nnc(NC(=O)c2ccccc2)s1)NO` [Compound 19847], the IC50 [1] was > 17 µM and the IC50 [2, 3] was 1.43 µM.
With `O=C(CSc1nnc(NC(=O)COc2ccccc2)s1)NO` [Compound 19848] the IC50 [1] was > 17 µM and the IC50 [2, 3] was 0.385 µM.
`COc1cc(OC)cc(C(=O)CNc2nnc(SCC(=O)NO)s2)c1` [Compound 19849] gave an IC50 [1] of 8.01 µM and an IC50 [2, 3] of 0.287 µM.
With `COc1ccc(-n2c(CSc3ncccn3)nnc2SCC(=O)NO)cc1` [Compound 19855] the IC50 [1] was > 17 µM and the IC50 [2, 3] was > 17 µM.
`O=C(CCN(Cc1cccs1)S(=O)(=O)c1ccc([N+](=O)[O-])cc1)NO` [Compound 162799] was tested, and the IC50 [1] was > 17 µM and the IC50 [2, 3] was > 17 µM.
`O=C(CCN(Cc1ccccc1)S(=O)(=O)c1ccc(F)cc1)NO` [Compound 162808] was tested, and the IC50 [1] was > 17 µM and the IC50 [2, 3] was > 17 µM.
`O=C(COc1ccc(Cl)cc1Cl)NO` [Compound 1596857] was tested, and the IC50 [1] was > 17 µM and the IC50 [2] was > 17 µM.
`O=C(Nc1cc(C(=O)Nc2ccc(S(=O)(=O)O)cc2S(=O)(=O)O)cc(C(=O)Nc2ccc(S(=O)(=O)O)cc2S(=O)(=O)O)c1)Nc1cc(C(=O)Nc2ccc(S(=O)(=O)O)cc2S(=O)(=O)O)cc(C(=O)Nc2ccc(S(=O)(=O)O)cc2S(=O)(=O)O)c1` [NFF449] was tested, and the increased apparent potency ([2]; 2.5 µM substrate condition) was 3 fold, the IC50 ([2]; 1536 wpf, 0.0125 nM enzyme, substrate 2.5uM, time 30 min, read-out: NF449 IC50) was 0.01 µM and the IC50 ([2]; 1536 wpf, 0.0125 nM enzyme, substrate 2.5uM, time 60 min, read-out: NF449 IC50) was 0.011 µM. The IC50 ([2]; 1536 wpf, 0.0125 nM enzyme, substrate 5uM, time 30 min, read-out: NF449 IC50) was 0.017 µM, the IC50 ([2]; 1536 wpf, 0.0125 nM enzyme, substrate 5uM, time 60 min, read-out: NF449 IC50) was 0.02 µM and the IC50 ([2]; 1536 wpf, 0.0125 nM enzyme, substrate 5uM, time 90 min, read-out: NF449 IC50) was 0.022 µM. For the same compound, the IC50 ([2]; 1536 wpf, 0.0125 nM enzyme, substrate 10uM, time 30 min, read-out: NF449 IC50) was 0.034 µM, the IC50 ([2]; 1536 wpf, 0.0125 nM enzyme, substrate 10uM, time 60 min, read-out: NF449 IC50) was 0.032 µM and the IC50 ([2]; 1536 wpf, 0.0125 nM enzyme, substrate 10uM, time 90 min, read-out: NF449 IC50) was 0.034 µM. It also gave an IC50 ([2]; 1536 wpf, enzyme 0.0125nM, time 30 min, read-out: NF449 IC50) of 0.0252 µM, an IC50 ([2]; 1536 wpf, enzyme 0.0125nM, time 60 min, read-out: NF449 IC50) of 0.0304 µM and an IC50 ([2]; 1536 wpf, enzyme 0.0125nM, time 90 min, read-out: NF449 IC50) of 0.0339 µM. For the same compound, the IC50 ([2]; 1536 wpf, enzyme 0.025nM, time 30 min, read-out: NF449 IC50) was 0.031 µM, the IC50 ([2]; 1536 wpf, enzyme 0.025nM, time 60 min, read-out: NF449 IC50) was 0.0362 µM and the IC50 ([2]; 1536 wpf, enzyme 0.025nM, time 90 min, read-out: NF449 IC50) was 0.0392 µM. It also gave an IC50 ([2]; 1536 wpf, enzyme 0.05nM, time 30 min, read-out: NF449 IC50) of 0.0296 µM, an IC50 ([2]; 1536 wpf, enzyme 0.05nM, time 60 min, read-out: NF449 IC50) of 0.0346 µM and an IC50 ([2]; 1536 wpf, enzyme 0.05nM, time 90 min, read-out: NF449 IC50) of 0.0394 µM. For the same compound, the IC50 ([2]; Meprin β 384 wpf, read-out: IC50) was 0.053 µM, the IC50 ([2]; Meprin β 1536 wpf, read-out: IC50) was 0.048 µM and the IC50 ([2]; control compound in primary HTS campaign, n = 11 plates, read-out: IC50) was 0.0104 ± 0.00085 µM.
With `O=[N+]([O-])c1ccc(CN2CCC3(CCc4ccccc43)CC2)o1` [SR207820] the IC50 [1] was > 17 µM and the IC50 [2, 3] was 1.5 µM.
For `O=C(c1ccc(C(=O)O)c([N+](=O)[O-])c1)c1ccc(C(=O)O)c([N+](=O)[O-])c1` [SR355996], the IC50 [1] was > 17 µM and the IC50 [2, 3] was 0.97 µM.
In the case of `CSc1nnc2c(n1)OC(c1ccc([N+](=O)[O-])o1)Nc1ccccc1-2` (centres unmarked) [SR412882], the IC50 [1] is reported as 17 µM and the IC50 [2, 3] is reported as 3.5 µM.
